Where two headings read alike, the source gives them in different places. Square brackets hold non-standard residues; d marks the D form. Peptide text beside a SMILES is read from it. Aib = CC(C)(N)C(=O)O
Key:
[1] = biological target: T1, β-amyloid1-42 globulomers (Homo sapiens, UniProt P05067); experiment: β-amyloid1-42 globulomer formation (6E10 immunoblot, densitometry); assay type: biochemical; settings: 0.13 mM β-amyloid, 1:5 to 1:20 molar ratio, 18 hours at 37° C.
T1 construct: β-amyloid monomers (0.4 mM) were produced by dissolving the 1-42 peptide in 1,1,1,3,3,3-hexafluoroisopropanol; purchased Bachem (Bubendorf Switzerland)
T1 sequence (P05067 672-713): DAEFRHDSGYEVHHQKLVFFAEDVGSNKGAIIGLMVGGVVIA
Source text: […] Solutions were then separated using a 15% Tris-Tricine gel, and transferred to a PVDF membrane, which was screened with a mouse anti β-amyloid monoclonal antibody (6E10; Signet, Dedham, Mass.)

PC-12 cells = experiment: Inhibition of β-amyloid cytotoxicity in PC-12 cells (MTT); assay type: cell-based; settings: 5 μM Aβ1-40, 6.5 μM-150 μM D-Trp-Aib, 24 hr, pre-incubated 21 days
Protocol: Prior to incubation with the PC-12 cells, 5× concentrated Aβ1-40 (25 μM) and 5× concentrated D-Trp-Aib were pre-incubated for 21 days.
Cell viability—The MTT-assay is a very sensitive assay measuring the mitochondrial dehydrogenase activity in viable cells. Following incubation, MTT reduction assay was undertaken according to the method described by Mosmann, [J. Immunol. Meth, 55-63 (1983)], cell viability was calculated by subtracting Aβ1-40 samples absorbance from non-Aβ1-40 controls containing the same D-Trp-Aib concentrations.

[2] = tested on: neuronal primary cell cultures; experiment: Neurotoxicity (5% assay), MTT and Calcein-AM; assay type: cell-based
Protocol: Neurotoxicity (5% assay)—Neural cells were grown in Poly-D-Lysine coated 96-well plates. Eighty μl medium containing 48.000 cells/well were added to each well plate containing 80 μl T.I. in the appropriate concentrations, or nutrition medium (control). Plates were kept at 37° C., 95% humidity and 5% CO2. Neurons, which begin to extend processes after a few hours in culture, were maintained in the same medium without change or addition of media for 8 days, until the end of the experiments. For Neurotoxicity, the MTT-assay was effected using a plate-reader (570 nm) for determining the culture viability, as described in Example 49. The MTT assay is based on the ability of a dehydrogenase enzyme from an active mitochondiria to produce a dark blue formazan product from the pale yellow MTT substrate, by cleaving the MTT tetrazolium rings. Since in the MTT-assay sometimes interference between the substance/drug applied and the generation of formazane crystals can be seen, it is necessary to introduce a second evaluation system. Therefore, the viability of cultures was determined with the Calcein-AM assay as well, as described in Neri et al., [Clin. Diagn. Lab Immunol. 1131-1135 (2001)], using an automated fluorescence plate-reader (485/535 nm). Calcein AM is a widely used green fluorescent cell marker, which is membrane-permeant and thus can be introduced into cells via incubation. […]

CYP450 3A4 = CYP450 3A4 (Homo sapiens, UniProt P08684); experiment: Human CYP450 screen 3A4; assay type: in vitro ADME
Chain of CYP450 3A4 (P08684 whole entry): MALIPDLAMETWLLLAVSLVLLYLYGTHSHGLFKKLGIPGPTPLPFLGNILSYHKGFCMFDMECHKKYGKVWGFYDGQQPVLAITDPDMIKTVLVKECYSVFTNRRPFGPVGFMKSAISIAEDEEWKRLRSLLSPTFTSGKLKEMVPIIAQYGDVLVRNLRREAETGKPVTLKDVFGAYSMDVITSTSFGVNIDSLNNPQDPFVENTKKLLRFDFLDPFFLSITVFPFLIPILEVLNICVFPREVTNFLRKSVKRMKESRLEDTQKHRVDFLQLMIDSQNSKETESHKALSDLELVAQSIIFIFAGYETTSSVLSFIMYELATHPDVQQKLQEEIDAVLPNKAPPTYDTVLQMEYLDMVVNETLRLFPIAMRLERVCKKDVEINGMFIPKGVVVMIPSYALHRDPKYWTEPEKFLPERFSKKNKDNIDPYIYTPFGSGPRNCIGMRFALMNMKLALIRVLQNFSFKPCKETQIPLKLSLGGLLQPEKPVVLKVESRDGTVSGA
Source text: For the metabolic stability assay, Human cytochrom P450 (CYP450) screens were used. The cytochrom P450 isoenzymes, which are located in the intestines, liver, lung, kidney and brain, are involved in important drug interactions. Drug metabolism occurs in two phases—Phase I involves oxidation, reduction, and hydrolysis. Phase II involves synthesis and conjugation. The CYP 450 isoenzymes are involved in Phase I oxidative reactions. CYP 450 interactions generally result from one of two processes—Induction, where a substance stimulates the synthesis of the enzyme and metabolic capacity is increased, and inhibition, where competitive binding at an enzyme's binding site(s) occurs. A drug with a high affinity for an enzyme will slow the metabolism of any low affinity drug. CYP 3A3/4 is the most abundant CYP 450 isoenzyme in humans and is responsible for the metabolism of the widest range of drugs/substances. (CYP450) screens used were 1A2, 2C9, 2C19, 2D6 and 3A4.

[3] = Acute toxicity in mice, single i.v. dose; settings: both sexes, mouse, in vivo, iv
Protocol: Acute Toxicity in Mice—Single dose LD50 or maximal tolerated dose (MTD) of D-Trp-Aib was evaluated by i.v. administration in mice (Harlan Biotech Israel). The sequential method applied in a stepwise procedure, using a minimum amount of animals. At a preliminary phase, an initial single target dose of 250 mg/kg was administered to a group of one male and one female. Further higher dose levels of 500, 1,000 and 750 mg/kg were administered in view of presence or absence of lethality incidence and/or severe adverse reactions at each applied level. The time intervals between the test groups dosing sessions were at least 24 hours. Following termination of the preliminary phase and based on its findings, a main phase was conducted where 5 males & 5 females were administered the jointly selected dose of 750 mg/kg, the highest dose level that was suspected to produce no mortality.

## CC(C)(NC(=O)[C@H](N)Cc1c[nH]c2ccccc12)C(=O)O [D-Trp-Aib] (H-[dW]-[Aib]-OH)
[1]
  amount of globulomers (densitometer analysis): about 45 % of the control
PC-12 cells
  inhibition of β-amyloid cytotoxicity (MTT viability): highly effective in inhibiting the cytotoxicity of β-amyloid
[2]; MTT viability assay and Calcein AM assay
  cytotoxicity towards neuronal primary cell cultures: noncytotoxic
[2]; concentration of up to 150 μM
  neuronal viability compared to the untreated control: did not alter neuronal viability
CYP450 3A4
  activity in CYP450 screen: None of the results met significance criteria
[3]
  MTD: > 750 mg/kg
[3]; single dose, i.v., read-out: maximal tolerated dose (MTD)
  MTD: < 1000 mg/kg

Reference: patent US8012929B2, “Peptides directed for diagnosis and treatment of amyloid-associated diseases” (Tel Aviv University Future Technology Development L.P., priority 2002, dated 2011)
